Data reported in patent US20130123481A1, “MODIFIED NUCLEOSIDES, NUCLEOTIDES, AND NUCLEIC ACIDS, AND USES THEREOF” (MODERNA THERAPEUTICS, priority 2011, published 2013).

Legend:
wild-type T7 polymerase = wild-type T7 polymerase (Escherichia phage T7, UniProt P00573); assay: In Vitro Transcription with Wild-Type T7 Polymerase (transcription and capping yield); settings: for IVT (G-CSF) / IVT (Luc): Table 47 naturally occurring
Method: The luciferase and G-CSF modified mRNA were also subjected to an enzymatic capping reaction and each modified mRNA capping reaction was evaluated for yield by spectrophometic measurement (OD260) and correct size assessed using bioanalyzer.

HeLa cells [1] = assay: In vitro Screening in HeLa Cells - luciferase (RLU); assay type: cell-based, human; design: key to Protein (Luc; HeLa): the protein production of HeLa is judged by “+,” “+/−” and “−”; the protein production of HeLa is judged by “+,” “+/−” and “−”; the protein production of HeLa is judged by “+,” “+/−” and “−”; settings: Table 47 naturally occurring; *** = production seen in cell free translations
Method: The 2′Fluoro-modified mRNA were then transfected into HeLa cells to assess protein production in a cell context and the same mRNA were also assessed in a cell-free rabbit reticulocyte system. A control of unmodified luciferase (natural luciferase) was used for both transcription experiments, a control of untreated and mock transfected (Lipofectamine 2000 alone) were also analyzed for the HeLa transfection and a control of no RNA was analyzed for the rabbit reticulysates.
For the HeLa transfection experiments, the day before transfection, 20,000 HeLa cells (ATCC no. CCL-2; Manassas, Va.) were harvested by treatment with Trypsin-EDTA solution (LifeTechnologies, Grand Island, N.Y.) and seeded in a total volume of 100 ul EMEM medium (supplemented with 10% FCS and 1× Glutamax) per well in a 96-well cell culture plate (Corning, Manassas, Va.). The cells were grown at […] in 5% CO2 atmosphere overnight. […] Lipofectamine 2000 (LifeTechnologies, Grand Island, N.Y.) was used as transfection reagent and 0.2 ul were diluted in 10 ul final volume of OPTI-MEM. After […] of incubation at room temperature, both solutions were combined and incubated an additional 15 minute at room temperature. Then the 20 ul combined solution was added to the 100 ul cell culture medium containing the HeLa cells and incubated at room temperature. After 18 to 22 hours of incubation cells expressing luciferase were lysed with 100 ul of Passive Lysis Buffer (Promega, Madison, Wis.) according to manufacturer instructions. Aliquots of the lysates were transferred to white opaque polystyrene 96-well plates (Corning, Manassas, Va.) and combined with 100 ul complete luciferase assay solution (Promega, Madison, Wis.). The lysate volumes were adjusted or diluted until no more than 2 mio relative light units (RLU) per well were detected for the strongest signal producing samples and the RLUs for each chemistry tested are shown in Table 42. The plate reader was a BioTek Synergy H1 (BioTek, Winooski, Vt.). The background signal of the plates without reagent was about 200 relative light units per well.
To evaluate using of 2′fluoro-modified mRNA in combination with other modification a series of mRNA were transcribed using either wild-type T7 polymerase (non-fluoro-containing compounds) or using mutant T7 polymerases (fluyoro-containing compounds) as described in Example 86. All modified mRNA were tested by in vitro transfection in HeLa cells.
After 18 to 22 hours of incubation cells expressing luciferase were lysed with 100 ul of Passive Lysis Buffer (Promega, Madison, Wis.) according to manufacturer instructions. Aliquots of the lysates were transferred to white opaque polystyrene 96-well plates (Corning, Manassas, Va.) and combined with 100 ul complete luciferase assay solution (Promega, Madison, Wis.). The lysate volumes were adjusted or diluted until no more than 2 mio relative light units (RLU) per well were detected for the strongest signal producing samples and the RLUs for each chemistry tested are shown in Table 44. The plate reader was a BioTek Synergy H1 (BioTek, Winooski, Vt.). The background signal of the plates without reagent was about 200 relative light units per well.

[2] = test system: peripheral blood mononuclear cells (PBMC), interferon-alpha (IFN-α); assay type: cell-based, human; settings: Table 47 naturally occurring; IFN-alpha, background about 70 pg/ml
Text: (§1) The supernatant was harvested and stored frozen until analyzed by ELISA to determine the G-CSF protein expression, and the induction of the cytokines interferon-alpha (IFN-α) and tumor necrosis factor alpha (TNF-α).

HeLa cells [3] = assay: G-CSF expression in HeLa cells (ELISA); assay type: cell-based, human; design: key to Protein (G-CSF; HeLa): the protein production of HeLa is judged by “+,” “+/−” and “−”; the protein production of HeLa is judged by “+,” “+/−” and “−”; the protein production of HeLa is judged by “+,” “+/−” and “−”; settings: for Protein (G-CSF; HeLa): Table 47 naturally occurring, *** = production seen in cell free translations; for G-CSF protein (pg/ml) HeLa cells: fully modified G-CSF mRNA transfected in HeLa cells, ELISA
Method: (§2) To assess the activity of all our different chemical modifications in the context of a second open reading frame, we replicated experiments previously conducted using luciferase mRNA, with human G-CSF mRNA. […] The mutant T7 polymerase was obtained commercially (Durascribe® T7 Transcription kit (Cat. No. DS010925) (Epicentre®, Madison, Wis.).
(§3) The modified RNA in Tables 45 and 46 were transfected in vitro in HeLa cells or added to rabbit reticulysates (250 ng of modified mRNA) as indicated. […] In Table 45, “NT” means not tested.

rabbit reticulysates = assay: G-CSF expression in rabbit reticulysates (ELISA); assay type: biochemical; settings: 250 ng modified G-CSF mRNA in rabbit reticulysates
Method: as §2, §3

[4] = test system: peripheral blood mononuclear cells (PBMC); assay: In Vitro Screening in PBMC - G-CSF protein expression; assay type: cell-based, human; settings: for G-CSF Protein Expression: 500 ng mRNA; for Protein (G-CSF; PBMC): Table 47 naturally occurring, background about 110 pg/ml
Text: as §1

[5] = G-CSF mRNA in vitro transcription, Pass/Fail
[6] = luciferase mRNA in vitro transcription, Pass/Fail

wild-type T7 polymerase, sequence (P00573 whole entry): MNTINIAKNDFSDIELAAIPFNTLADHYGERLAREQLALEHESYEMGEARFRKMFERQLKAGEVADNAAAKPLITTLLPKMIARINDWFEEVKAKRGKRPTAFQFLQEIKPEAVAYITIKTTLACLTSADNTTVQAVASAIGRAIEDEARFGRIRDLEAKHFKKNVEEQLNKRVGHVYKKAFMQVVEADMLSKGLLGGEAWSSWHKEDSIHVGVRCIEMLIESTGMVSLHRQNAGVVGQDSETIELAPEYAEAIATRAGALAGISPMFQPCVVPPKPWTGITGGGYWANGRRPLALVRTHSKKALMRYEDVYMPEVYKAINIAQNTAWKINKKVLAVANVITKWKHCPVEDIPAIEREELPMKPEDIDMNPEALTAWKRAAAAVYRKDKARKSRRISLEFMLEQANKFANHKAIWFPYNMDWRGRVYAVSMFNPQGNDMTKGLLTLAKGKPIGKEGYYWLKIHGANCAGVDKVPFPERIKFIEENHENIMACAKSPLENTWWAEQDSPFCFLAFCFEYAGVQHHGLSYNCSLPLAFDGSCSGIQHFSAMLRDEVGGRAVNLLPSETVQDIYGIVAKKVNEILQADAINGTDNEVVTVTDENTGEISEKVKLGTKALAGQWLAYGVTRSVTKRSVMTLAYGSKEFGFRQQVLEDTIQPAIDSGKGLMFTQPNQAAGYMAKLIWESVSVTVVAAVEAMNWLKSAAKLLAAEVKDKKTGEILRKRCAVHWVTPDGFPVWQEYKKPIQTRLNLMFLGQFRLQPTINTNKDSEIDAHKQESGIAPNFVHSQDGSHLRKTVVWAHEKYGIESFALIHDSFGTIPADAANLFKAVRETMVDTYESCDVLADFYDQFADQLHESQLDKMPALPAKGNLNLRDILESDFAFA

Nc1nc(=O)n([C@@H]2O[C@H](CO)[C@@H](O)[C@H]2O)cc1C=O [5-formylcytidine (f^5C)]
IVT (G-CSF) (wild-type T7 polymerase; [5]): Pass
IVT (Luc) (wild-type T7 polymerase; [6]): Pass
Protein (Luc; HeLa) (HeLa cells [1]): −***
Cytokines (G-CSF; PBMC) [2]: + (“+” means greater than 100 pg/ml IFN-alpha)
Protein (G-CSF; HeLa) (HeLa cells [3]): −***

COc1cn([C@@H]2O[C@H](CO)[C@@H](O)[C@H]2O)c(=O)[nH]c1=O [5-methoxyuridine]
G-CSF protein (pg/ml) Rabbit reticulysates cells (rabbit reticulysates): 201,750 pg/ml
G-CSF Protein Expression ([4]; PBMC Donor 1, 0.4 uL Lipofectamine 2000): 2,964 pg/ml
G-CSF Protein Expression ([4]; PBMC Donor 2): 1,832 pg/ml
G-CSF Protein Expression ([4]; PBMC Donor 3): 1,800 pg/ml
G-CSF protein (pg/ml) HeLa cells (HeLa cells [3]): 1,715,909 pg/ml

Nc1nc(=O)n([C@@H]2O[C@H](CO)[C@@H](O)[C@H]2O)cc1C=O [Compound 5-formyl-cytidine, 5-formyl-cytidine]
G-CSF protein (pg/ml) Rabbit reticulysates cells (rabbit reticulysates): 24,000 pg/ml
G-CSF protein (pg/ml) HeLa cells (HeLa cells [3]): 0 pg/mL

Cc1cn([C@@H]2O[C@H](CO)[C@@H](O)[C@H]2O)c(=O)nc1N [Compound 5-methyl-cytidine, 5-methyl-cytidine]
G-CSF protein (pg/ml) Rabbit reticulysates cells (rabbit reticulysates): 79,375 pg/ml
G-CSF protein (pg/ml) HeLa cells (HeLa cells [3]): 646,591 pg/ml

Nc1cnn([C@@H]2O[C@H](CO)[C@@H](O)[C@H]2O)c(=O)n1 [Compound 6-Aza-cytidine, 6-Aza-cytidine]
IVT (G-CSF), first result (wild-type T7 polymerase; Table 48 non-naturally occurring, G-CSF mRNA in vitro transcription, Pass/Fail): Fail
IVT (Luc), first result (wild-type T7 polymerase; Table 48 non-naturally occurring, luciferase mRNA in vitro transcription, Pass/Fail): Fail

Cn1cnc2c(ncn2[C@@H]2O[C@H](CO)[C@@H](O)[C@H]2O)c1=N [Compound N1-methyl-adenosine, N1-methyl-adenosine]
G-CSF protein (pg/ml) Rabbit reticulysates cells (rabbit reticulysates): 0 pg/mL
G-CSF protein (pg/ml) HeLa cells (HeLa cells [3]): 4,773 pg/ml

CNc1ncnc2c1ncn2[C@@H]1O[C@H](CO)[C@@H](O)[C@H]1O [Compound N6-methyl-adenosine, N6-methyl-adenosine]
G-CSF protein (pg/ml) Rabbit reticulysates cells (rabbit reticulysates): 0 pg/mL
G-CSF protein (pg/ml) HeLa cells (HeLa cells [3]): 1,591 pg/ml

O=c1[nH]cc([C@@H]2O[C@H](CO)[C@@H](O)[C@H]2O)c(=O)[nH]1 [pseudouridine (Y)]
IVT (G-CSF) (wild-type T7 polymerase; [5]): Pass
IVT (Luc) (wild-type T7 polymerase; [6]): Pass
Protein (Luc; HeLa) (HeLa cells [1]): +
Cytokines (G-CSF; PBMC) [2]: + (“+” means greater than 100 pg/ml IFN-alpha)
Protein (G-CSF; PBMC) [4]: ++ (“++” means greater than 1,500 pg/ml G-CSF)
Protein (G-CSF; HeLa) (HeLa cells [3]): +

Luciferase control
G-CSF protein (pg/ml) Rabbit reticulysates cells (rabbit reticulysates): 0 pg/mL

N-1-methyladenosine [Compound N-1-methyladenosine]
In vitro transcription Yield (wild-type T7 polymerase; G-CSF mRNA, wild-type T7 polymerase, OD260): 0.63 mg

N^6-methyladenosine (m^6A)
IVT (G-CSF) (wild-type T7 polymerase; [5]): Pass
IVT (Luc) (wild-type T7 polymerase; [6]): Pass
Protein (Luc; HeLa) (HeLa cells [1]): −
Cytokines (G-CSF; PBMC) [2]: ++++ (“++++” means greater than 1,000 pg/ml interferon-alpha (IFN-alpha))
Protein (G-CSF; PBMC) [4]: +/− (“+/−” means 150-300 pg/ml G-CSF)
Protein (G-CSF; HeLa) (HeLa cells [3]): −
